From patent publication US20110002993A1, “FILM COATED TABLETS CONTAINING DROSPIRENONE AS ACTIVE AGENT AND A METHOD FOR THE PREPARATION THEREOF” (RICHTER GEDEON NYRT., priority 2007, published 2011)

Assay: solubility of drospirenone in water
Assay type: physicochemical
Excerpt: For dissolution of such a large amount of active agent a large amount of pharmaceutically and environmentally acceptable solvent is needed. […] In the preparation process according to the invention the solvent is ethanol. Ethanol is the most advantageous solvent from the environmental and safety point of views.

## C[C@]12CCC(=O)C=C1[C@@H]1C[C@@H]1[C@H]1[C@@H]3[C@@H]4C[C@@H]4[C@@]4(CCC(=O)O4)[C@@]3(C)CC[C@@H]12 [drospirenone, 6β,7β;15β,16β-dimethylene-3-oxo-17α-pregn-4-en-21,17-carbolactone]
  solubility in water: substantially insoluble in water
